Several values for one entry are separate records, joined by “and”; a condition that tells them apart may be missing. Identical values can stand only once. Entries after “also recorded” stand apart in the source; their conditions may differ.
Experiments:
[1] = molecular target: T1, SARS-CoV-2 M^pro (Severe acute respiratory syndrome coronavirus 2, UniProt P0DTD1); assay type: biochemical; conditions: mean with 95% confidence interval; 100 nM M^pro, pH 7.3, 37 °C
T1 construct: Initially reported to target the viral main protease (M^pro); made in house
Experimental: In the enzyme inhibition assays, the initial velocities were calculated from the initial linear portions of their curves, assuming steady-state kinetics. IC50 and Ki values were calculated using GraphPad Prism software. Z-FR-AMC (CatK and CatV), Z-RR-AMC (CatB and CatL), and QS1 or Acetyl-VKLQ-AMC (M^pro) substrates were used to monitor reactions. These measurements were done in four independent duplicates or triplicates, respectively.

[2] = molecular target: T2, human CatK (Homo sapiens, UniProt P43235); experiment: Cathepsin inhibition test, CatK; assay type: biochemical; conditions: for Residual activity (Vi/V0): Fig. S3 panel a, single replicates
T2 construct: made in house
T2 sequence (P43235 115-329): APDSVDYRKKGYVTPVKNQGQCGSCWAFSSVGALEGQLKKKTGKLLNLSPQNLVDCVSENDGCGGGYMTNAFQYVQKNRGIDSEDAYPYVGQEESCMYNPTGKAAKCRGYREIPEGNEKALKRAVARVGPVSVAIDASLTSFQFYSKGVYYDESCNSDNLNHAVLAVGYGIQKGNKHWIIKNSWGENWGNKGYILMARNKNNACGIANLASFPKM

[3] = system: SARS-CoV-2-GFP; experiment: microbe, parasite or virus in culture; assay type: cell-based; conditions: mean with standard error, read-out: VERO E6 EC50
[4] = system: VERO-CCL81 cells; experiment: Cell viability assay (CellTiter-Glo), VERO-CCL81; assay type: cell-based; conditions: for Cell viability (% control): VERO CCL81, 72 h, replicates of experiments 1 and 2
Experimental: (§1) VERO-CCL81 was seeded in 96-well plates at a density of 1.5×10^4 cells/well, while LC-HK2 was seeded at a density of 3×10^4 cells/well, following 24 h incubation at 37 °C and 5% CO2 atmosphere. The cell culture media was replaced by serial dilutions of the compounds and the cell viability was determined 72 h post-treatment via CellTiter-Glo® Luminescent Cell Viability Assay (Promega), following the manufacturer’s instructions. Luminescent signal was recorded using a CLARIOstar multi-mode microplate reader (BMG Labtech, Germany). Graphs were generated using GraphPad Prism software version 8.0 (La Jolla, CA, USA, www.graphpad.com). Samples deemed to be technical failures and extreme outlier were removed.

[5] = system: LC-HK2 cells; experiment: Cell viability assay (CellTiter-Glo), LC-HK2; assay type: cell-based, human; conditions: for Cell viability (% control): LC-HK2, 72 h, replicates
Experimental: as §1

[6] = system: LC-HK2 cells; experiment: Fluorescence microscopy, S-protein vesicle size in infected LC-HK2 cells; assay type: cell-based, human; conditions: 1.5 µM, versus control
Experimental: LC-HK2 was cultivated on coverslips (13 mm diameter) to approximately 80% confluence. The cells were pre-treated for 2 h with 1.5 µM of S-Calpeptin diluted in DMEM supplemented with 2.5% FBS. The compounds were removed, and SARS-CoV-2 strain diluted in DMEM supplemented with 2.5% FBS was added to LC-HK2 cells at M.O.I of 0.05, allowing absorption for 1 h. The viral inoculum was removed, and cells were gently washed with PBS without calcium and magnesium. The cells were incubated in the continued presence of 1.5 µM of S-Calpeptin diluted in DMEM supplemented with 2.5% FBS and were examined by fluorescence microscopy at the time points 32, 40, 48, 56, 64 and 72 h post-infection.
For this purpose, the cells were fixed and permeabilized with 3.7% formaldehyde solution (Sigma-Aldrich, F1635) containing 0.2% Triton X-100 in PBS 1×. […] The images were captured using fluorescence range intensity adjusted identically within each experimental series.
Vesicles size quantifications were obtained from 2D maximum projections of Z stacks exported as grayscale TIFs (16-bit depth) using Automated Image Analysis in Zen 2.6 blue software (ZEISS). […]
In the Fluorescence microscopy evaluation, the P-values were generated by unpaired t-test using GraphPad Prism version 8.00 (La Jolla, CA, USA, www.graphpad.com). […]

CCCC[C@H](NC(=O)[C@H](CC(C)C)NC(=O)OCc1ccccc1)C(O)S(=O)(=O)[O-].[Na+] (stereo partly drawn) [S-Calpeptin]
Ki [1]: 4700 nM | Residual activity (Vi/V0) ([2]; inhibitor 0.010 nM, 10 pM): 1.028 and 1.067 and 0.9629 and 0.9414 and 0.9225 | Residual activity (Vi/V0) ([2]; inhibitor 0.018 nM, 18 pM): 1.062 and 1.238 and 0.9724 and 0.8624 and 0.8684 | Residual activity (Vi/V0) ([2]; inhibitor 0.032 nM, 32 pM): 0.9319 and 1.215 and 0.8238 and 0.889 and 0.8605 | Residual activity (Vi/V0) ([2]; inhibitor 0.058 nM, 58 pM): 0.7562 and 0.8292 and 0.7671 | Residual activity (Vi/V0) ([2]; inhibitor 0.105 nM, 0.000105 µM): 1.104 and 0.8757 and 0.7581 and 0.6636 and 0.6847 | Residual activity (Vi/V0) ([2]; inhibitor 0.189 nM, 0.000189 µM): 0.6363 and 0.7129 and 0.6855 and 0.6137 and 0.6926 | Residual activity (Vi/V0) ([2]; inhibitor 0.340 nM, 0.00034 µM): 0.4419 and 0.3556 and 0.547 and 0.5599 and 0.6191 | Residual activity (Vi/V0) ([2]; inhibitor 0.612 nM, 0.000612 µM): 0.562 and 0.5894 and 0.4634 and 0.3938 and 0.3707 | Residual activity (Vi/V0) ([2]; inhibitor 1.103 nM, 0.001103 µM): 0.4683 and 0.4274 and 0.3853 and 0.3355 and 0.2949 | Residual activity (Vi/V0) ([2]; inhibitor 1.985 nM, 0.001985 µM): 0.2888 and 0.2948 and 0.2332 and 0.2265 and 0.1772 | Residual activity (Vi/V0) ([2]; inhibitor 3.572 nM, 0.003572 µM): 0.2021 and 0.2433 and 0.1658 and 0.1472 and 0.1161 | Residual activity (Vi/V0) ([2]; inhibitor 6.430 nM, 0.00643 µM): 0.1399 and 0.09741 and 0.09721 and 0.03496 | Residual activity (Vi/V0) ([2]; inhibitor 11.547 nM, 0.011547 µM): 0.01107 and 0.1108 and 0.1149 and 0.0689 and 0.02957 | Residual activity (Vi/V0) ([2]; inhibitor 20.833 nM, 0.020833 µM): 0.08599 and -0.06715 and 0.04731 and 0.03845 and 0.01885 | Residual activity (Vi/V0) ([2]; inhibitor 37.500 nM, 0.0375 µM): -0.05695 and -0.1347 and 0.027 and 0.005377 and -0.00068 | Ki ([2]; mean with standard deviation and 95% confidence interval, pH 5.5, 37 °C): 0.05 nM | EC50 [3]: 120 ± 54 nM | Cell viability (% control) ([4]; 0.0781 μM): 99.91 % control and 99.99 % control and 93.43 % control | Cell viability (% control) ([4]; 0.1563 μM): 101.27 % control and 99.33 % control and 91.02 % control | Cell viability (% control) ([4]; 0.3125 μM): 98.12 % control and 96.79 % control and 88.9 % control and 104.51 % control and 93.11 % control and 88.49 % control | Cell viability (% control) ([4]; 0.625 μM): 102.02 % control and 99.32 % control and 91.53 % control and 106.07 % control and 99.18 % control and 92.52 % control | Cell viability (% control) ([4]; 1.25 μM): 101.8 % control and 101.21 % control and 92.78 % control and 102.28 % control and 98.11 % control and 94.97 % control | Cell viability (% control) ([4]; 2.5 μM): 103.7 % control and 100.66 % control and 93.92 % control and 107.86 % control and 99.28 % control and 84.04 % control | Cell viability (% control) ([4]; 5 μM): 103.66 % control and 103.11 % control and 94.78 % control and 109.88 % control and 106.46 % control and 91.66 % control | Cell viability (% control) ([4]; 10 μM): 95.16 % control and 96.86 % control and 93.25 % control and 107.42 % control and 101.38 % control and 83.78 % control | cytotoxicity (in words) ([4]; VERO-CCL81, 72 h): no cytotoxicity up to low micromolar concentrations | cytotoxicity (in words) ([5]; LC-HK2, 72 h): no cytotoxicity up to low micromolar concentrations | Cell viability (% control) ([5]; 0.0006 μM): 101.91 % control and 100.87 % control and 100.74 % control | Cell viability (% control) ([5]; 0.0012 μM): 103 % control and 98.5 % control and 94.37 % control | Cell viability (% control) ([5]; 0.0024 μM): 103.56 % control and 100.06 % control and 97.94 % control | Cell viability (% control) ([5]; 0.0049 μM): 100.56 % control and 101.52 % control and 96.13 % control | Cell viability (% control) ([5]; 0.0098 μM): 103.39 % control and 98.29 % control and 93.66 % control | Cell viability (% control) ([5]; 0.0195 μM): 101 % control and 102.2 % control and 97.31 % control | Cell viability (% control) ([5]; 0.0391 μM): 101.11 % control and 100.82 % control and 93.61 % control | Cell viability (% control) ([5]; 0.0781 μM): 95.36 % control and 95.43 % control and 89.73 % control and 94.91 % control and 94.76 % control and 87.15 % control | Cell viability (% control) ([5]; 0.1563 μM): 94.91 % control and 93.6 % control and 89 % control and 98.33 % control and 105.61 % control and 98.34 % control | Cell viability (% control) ([5]; 0.3125 μM): 97.71 % control and 92.81 % control and 89.53 % control and 99.96 % control and 101.2 % control | Cell viability (% control) ([5]; 0.625 μM): 99.27 % control and 95.19 % control and 89.18 % control and 98.53 % control and 102.88 % control and 100.16 % control | Cell viability (% control) ([5]; 1.25 μM): 94.67 % control and 92.11 % control and 87.48 % control and 95.09 % control and 95.4 % control and 94.79 % control | Cell viability (% control) ([5]; 2.5 μM): 94.03 % control and 92.7 % control and 88.37 % control and 89.79 % control and 94.67 % control and 93.9 % control | Cell viability (% control) ([5]; 5 μM): 91.36 % control and 87.95 % control and 86.97 % control and 86.06 % control and 93.58 % control and 92 % control | Cell viability (% control) ([5]; 10 μM): 83.09 % control and 79.77 % control and 75 % control and 90.37 % control and 93.49 % control and 89.11 % control | Cell viability (% control) ([5]; 100 μM): 73.52 % control and 81.33 % control and 73.97 % control | impact on vesicle morphology / S-protein vesicle size [6]: did not reveal significant differences; also recorded: no substantial impact on vesicle morphology

From publication PMC10584882 (Communications Biology, 2023)
